Experimental data from ChEMBL document CHEMBL1159256, “Acetylcholinesterase inhibition by territrem B derivatives” (J Nat Prod, 1995).
Activity calls are given as the source filed them. The rule behind the calls is not given here.

Legend:
[1] = target: Acetylcholinesterase (Electrophorus electricus) (UniProt O42275); assay: (§1) Inhibition of electric eel AChE by Ellman's method
Acetylcholinesterase = Acetylcholinesterase (Electrophorus electricus, UniProt O42275); assay: as §1; details: read-out: I50
Sequence of Acetylcholinesterase (O42275 whole entry): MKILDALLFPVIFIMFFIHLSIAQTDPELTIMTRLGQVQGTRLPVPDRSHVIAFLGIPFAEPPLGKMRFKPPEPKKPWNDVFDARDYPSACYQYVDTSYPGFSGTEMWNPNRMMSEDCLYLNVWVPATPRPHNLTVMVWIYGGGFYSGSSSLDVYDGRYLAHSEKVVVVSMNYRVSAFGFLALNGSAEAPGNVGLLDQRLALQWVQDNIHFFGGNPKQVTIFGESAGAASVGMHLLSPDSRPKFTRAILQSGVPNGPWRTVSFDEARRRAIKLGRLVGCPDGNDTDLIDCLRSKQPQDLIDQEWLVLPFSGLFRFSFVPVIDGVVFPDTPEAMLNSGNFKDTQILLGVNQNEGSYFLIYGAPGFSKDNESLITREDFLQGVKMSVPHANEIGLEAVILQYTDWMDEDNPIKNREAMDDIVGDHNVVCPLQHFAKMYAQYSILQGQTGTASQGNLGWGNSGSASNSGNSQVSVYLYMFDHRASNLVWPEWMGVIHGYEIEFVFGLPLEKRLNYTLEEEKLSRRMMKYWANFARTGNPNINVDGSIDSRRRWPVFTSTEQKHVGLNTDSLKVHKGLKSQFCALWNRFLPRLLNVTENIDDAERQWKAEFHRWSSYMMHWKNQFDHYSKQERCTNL

Sequence of Acetylcholinesterase (Electrophorus electricus) (O42275 24-633 limits assumed): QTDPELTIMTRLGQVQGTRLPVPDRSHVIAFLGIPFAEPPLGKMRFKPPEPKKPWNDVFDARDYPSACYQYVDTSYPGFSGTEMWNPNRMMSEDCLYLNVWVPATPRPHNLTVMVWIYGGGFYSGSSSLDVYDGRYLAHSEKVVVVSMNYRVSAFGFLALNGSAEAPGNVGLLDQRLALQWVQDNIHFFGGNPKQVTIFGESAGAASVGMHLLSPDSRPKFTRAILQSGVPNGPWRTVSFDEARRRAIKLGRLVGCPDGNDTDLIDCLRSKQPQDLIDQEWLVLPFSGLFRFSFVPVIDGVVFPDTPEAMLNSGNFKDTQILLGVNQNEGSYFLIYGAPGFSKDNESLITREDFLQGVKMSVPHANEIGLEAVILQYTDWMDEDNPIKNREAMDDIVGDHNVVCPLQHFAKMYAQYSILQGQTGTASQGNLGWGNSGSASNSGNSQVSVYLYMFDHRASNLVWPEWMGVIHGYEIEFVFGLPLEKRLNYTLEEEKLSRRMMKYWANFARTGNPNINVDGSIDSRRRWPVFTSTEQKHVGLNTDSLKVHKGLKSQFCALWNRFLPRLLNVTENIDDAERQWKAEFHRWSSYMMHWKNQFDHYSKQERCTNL

SMILES | inhibition ([1]; concentration not given here) [%] | IC50 (Acetylcholinesterase) [µM] | Activity [1]
COc1cc(-c2cc3c(c(=O)o2)C[C@]2(O)[C@@]4(C)C(=O)C=CC(C)(C)[C@]4(O)CC[C@@]2(C)O3)cc(OC)c1OC [TERRITREM B] | 50 | 0.26 | –
COc1cc(CCC2=C(C(=O)O)C[C@]3(O)[C@@]4(C)C(=O)CCC(C)(C)[C@]4(O)CC[C@@]3(C)O2)cc(OC)c1OC | – | – | inactive
COc1cc(-c2cc3c(c(=O)o2)C[C@]2(O)[C@@]4(C)C(=O)CCC(C)(C)[C@]4(O)CC[C@@]2(C)O3)cc(OC)c1OC [2,3-DIHYDROTERRITREM B] | – | 2.2 | –
COc1cc(-c2cc3c(c(=O)o2)C[C@]2(O)[C@@]4(C)C(=O)C=C[C@](C)(CI)[C@]4(O)CC[C@@]2(C)O3)cc(OC)c1OC [4BETA-IODOMETHYL-4BETA-DEMETHYL-TERRITREM B] | – | 0.29 | –
COc1cc(-c2cc3c(c(=O)o2)C[C@]2(O)[C@@]4(C)C(=O)[C@H]5O[C@H]5C(C)(C)[C@]4(O)CC[C@@]2(C)O3)cc(OC)c1OC [2,3-EPOXYTERRITREM B] | – | 0.17 | –
COc1cc(-c2cc3c(c(=O)o2)C[C@]2(O)[C@@]4(C)[C@H](O)C=CC(C)(C)[C@]4(O)CC[C@@]2(C)O3)cc(OC)c1OC [1-DIHYDROTERRITREM B] | – | 79 | –
